# Laboratory results as given in ChEMBL document CHEMBL4507281, “Data for DCP probe BI-4394” (2021).
# Legend:
# [1] = tested on: Epidermal growth factor receptor (Homo sapiens), P00533 [UNDEFINED MUTATION]; conditions: Compound concentration 100.0 nM
# [2] = target: Calcium/calmodulin-dependent protein kinase type II subunit alpha (Homo sapiens) (UniProt Q9UQM7); conditions: Compound concentration 100.0 nM
# [3] = target: LIM domain kinase 1 (Homo sapiens) (UniProt P53667); conditions: Compound concentration 100.0 nM
# [4] = target: Discoidin domain-containing receptor 2 (Homo sapiens) (UniProt Q16832); conditions: Compound concentration 100.0 nM
# [5] = target: Membrane-associated tyrosine- and threonine-specific cdc2-inhibitory kinase (Homo sapiens) (UniProt Q99640); conditions: Compound concentration 100.0 nM
# [6] = tested on: Mast/stem cell growth factor receptor Kit (Homo sapiens), P10721 [L576P]; conditions: Compound concentration 100.0 nM
# [7] = target: Cyclin-G-associated kinase (Homo sapiens) (UniProt O14976); conditions: Compound concentration 100.0 nM
# [8] = target: Mitogen-activated protein kinase kinase kinase kinase 1 (Homo sapiens) (UniProt Q92918); conditions: Compound concentration 100.0 nM
# [9] = target: Calcium/calmodulin-dependent protein kinase type II subunit beta (Homo sapiens) (UniProt Q13554); conditions: Compound concentration 100.0 nM
# [10] = target: Muscle, skeletal receptor tyrosine-protein kinase (Homo sapiens) (UniProt O15146); conditions: Compound concentration 100.0 nM
# [11] = target: Serine/threonine-protein kinase RIO1 (Homo sapiens) (UniProt Q9BRS2); conditions: Compound concentration 100.0 nM
# [12] = target: Mitogen-activated protein kinase kinase kinase kinase 2 (Homo sapiens) (UniProt Q12851); conditions: Compound concentration 100.0 nM
# [13] = target: Tyrosine-protein kinase Blk (Homo sapiens) (UniProt P51451); conditions: Compound concentration 100.0 nM
# [14] = target: Serine/threonine-protein kinase BRSK1 (Homo sapiens) (UniProt Q8TDC3); conditions: Compound concentration 100.0 nM
# [15] = tested on: Tyrosine-protein kinase ABL1 (Homo sapiens), P00519 [F317L]; conditions: Compound concentration 100.0 nM
# [16] = target: Serine/threonine-protein kinase 36 (Homo sapiens) (UniProt Q9NRP7); conditions: Compound concentration 100.0 nM
# [17] = target: Dual specificity mitogen-activated protein kinase kinase 2 (Homo sapiens) (UniProt P36507); conditions: Compound concentration 100.0 nM
# [18] = target: Receptor-interacting serine/threonine-protein kinase 1 (Homo sapiens) (UniProt Q13546); conditions: Compound concentration 100.0 nM
# [19] = target: Mast/stem cell growth factor receptor Kit (Homo sapiens) (UniProt P10721); conditions: Compound concentration 100.0 nM
# [20] = target: Tyrosine-protein kinase Srms (Homo sapiens) (UniProt Q9H3Y6); conditions: Compound concentration 100.0 nM
# [21] = tested on: Mast/stem cell growth factor receptor Kit (Homo sapiens), P10721 [A829P]; conditions: Compound concentration 100.0 nM
# [22] = tested on: Receptor-type tyrosine-protein kinase FLT3 (Homo sapiens), P36888 [D835V]; conditions: Compound concentration 100.0 nM
# [23] = target: Ribosomal protein S6 kinase alpha-6 (Homo sapiens) (UniProt Q9UK32); conditions: Compound concentration 100.0 nM
# [24] = target: Dual specificity protein kinase CLK1 (Homo sapiens) (UniProt P49759); conditions: Compound concentration 100.0 nM
# [25] = tested on: Tyrosine-protein kinase ABL1 (Homo sapiens), P00519 [T315I]; conditions: Compound concentration 100.0 nM
# [26] = tested on: Phosphatidylinositol 4,5-bisphosphate 3-kinase catalytic subunit alpha isoform (Homo sapiens), P42336 [Q546K]; conditions: Compound concentration 100.0 nM
# [27] = target: Serine/threonine-protein kinase Nek10 (Homo sapiens) (UniProt Q6ZWH5); conditions: Compound concentration 100.0 nM
# [28] = target: Phosphatidylinositol 5-phosphate 4-kinase type-2 beta (Homo sapiens) (UniProt P78356); conditions: Compound concentration 100.0 nM
# [29] = tested on: Tyrosine-protein kinase ABL1 (Homo sapiens), P00519 [H396P]; conditions: Compound concentration 100.0 nM
# [30] = tested on: Epidermal growth factor receptor (Homo sapiens), P00533 [UNDEFINED MUTATION]; conditions: Compound concentration 100.0 nM; remark: listed apart in the source
# [31] = target: Ribosomal protein S6 kinase alpha-5 (Homo sapiens) (UniProt O75582); conditions: Compound concentration 100.0 nM
# [32] = target: MAP kinase-activated protein kinase 2 (Homo sapiens) (UniProt P49137); conditions: Compound concentration 100.0 nM
# [33] = target: D(1B) dopamine receptor (Homo sapiens, UniProt P21918); conditions: Compound concentration 10.0 uM
# [34] = tested on: Receptor-type tyrosine-protein kinase FLT3 (Homo sapiens), P36888 [UNDEFINED MUTATION]; conditions: Compound concentration 100.0 nM
# [35] = tested on: ALK tyrosine kinase receptor (Homo sapiens), Q9UM73 [L1196M]; conditions: Compound concentration 100.0 nM
# [36] = target: Maternal embryonic leucine zipper kinase (Homo sapiens) (UniProt Q14680); conditions: Compound concentration 100.0 nM
# [37] = target: Myosin light chain kinase family member 4 (Homo sapiens) (UniProt Q86YV6); conditions: Compound concentration 100.0 nM
# [38] = target: Dual serine/threonine and tyrosine protein kinase (Homo sapiens) (UniProt Q6XUX3); conditions: Compound concentration 100.0 nM
# [39] = target: Casein kinase II subunit alpha' (Homo sapiens) (UniProt P19784); conditions: Compound concentration 100.0 nM
# [40] = target: Tyrosine-protein kinase receptor Tie-1 (Homo sapiens) (UniProt P35590); conditions: Compound concentration 100.0 nM
# [41] = target: Sigma non-opioid intracellular receptor 1 (Homo sapiens) (UniProt Q99720); conditions: Compound concentration 10.0 uM
# [42] = target: Tyrosine-protein kinase SYK (Homo sapiens) (UniProt P43405); conditions: Compound concentration 100.0 nM
# [43] = target: cGMP-dependent protein kinase 2 (Homo sapiens) (UniProt Q13237); conditions: Compound concentration 100.0 nM
# [44] = target: Aurora kinase B (Homo sapiens) (UniProt Q96GD4); conditions: Compound concentration 100.0 nM
# Sequence of Epidermal growth factor receptor (Homo sapiens), P00533 [UNDEFINED MUTATION] (P00533 whole entry, looked up, change not shown): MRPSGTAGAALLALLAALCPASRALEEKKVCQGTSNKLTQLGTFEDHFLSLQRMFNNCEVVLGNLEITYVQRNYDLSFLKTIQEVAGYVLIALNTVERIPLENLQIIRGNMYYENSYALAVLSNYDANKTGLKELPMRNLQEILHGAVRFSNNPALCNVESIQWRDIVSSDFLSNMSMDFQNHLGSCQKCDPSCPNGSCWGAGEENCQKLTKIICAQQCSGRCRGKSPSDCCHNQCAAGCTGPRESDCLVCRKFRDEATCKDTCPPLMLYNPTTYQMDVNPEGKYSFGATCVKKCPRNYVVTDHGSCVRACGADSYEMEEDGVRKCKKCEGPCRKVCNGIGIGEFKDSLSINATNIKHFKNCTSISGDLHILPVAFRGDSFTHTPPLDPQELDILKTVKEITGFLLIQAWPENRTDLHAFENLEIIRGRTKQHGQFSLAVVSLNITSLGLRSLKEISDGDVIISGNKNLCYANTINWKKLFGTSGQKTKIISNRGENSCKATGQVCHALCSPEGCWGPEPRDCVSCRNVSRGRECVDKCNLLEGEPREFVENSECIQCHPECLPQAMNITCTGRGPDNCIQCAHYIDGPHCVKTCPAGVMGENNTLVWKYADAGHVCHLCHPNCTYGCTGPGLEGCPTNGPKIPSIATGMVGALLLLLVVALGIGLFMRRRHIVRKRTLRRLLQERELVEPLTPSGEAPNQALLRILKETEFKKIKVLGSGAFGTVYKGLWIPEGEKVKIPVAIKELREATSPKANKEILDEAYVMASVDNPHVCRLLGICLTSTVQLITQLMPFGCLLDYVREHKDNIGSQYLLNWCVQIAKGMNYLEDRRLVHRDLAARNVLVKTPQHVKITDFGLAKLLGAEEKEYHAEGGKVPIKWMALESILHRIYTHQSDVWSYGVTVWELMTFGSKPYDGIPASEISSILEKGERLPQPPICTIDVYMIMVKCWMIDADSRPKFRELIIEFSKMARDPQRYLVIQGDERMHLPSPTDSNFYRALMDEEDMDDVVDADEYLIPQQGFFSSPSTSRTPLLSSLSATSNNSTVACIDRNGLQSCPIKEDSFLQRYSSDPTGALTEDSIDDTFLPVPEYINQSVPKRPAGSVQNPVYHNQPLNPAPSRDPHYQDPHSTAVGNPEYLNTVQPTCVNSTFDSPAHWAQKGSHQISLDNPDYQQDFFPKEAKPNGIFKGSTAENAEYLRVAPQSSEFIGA
# Sequence of Maternal embryonic leucine zipper kinase (Homo sapiens) (Q14680 whole entry, looked up): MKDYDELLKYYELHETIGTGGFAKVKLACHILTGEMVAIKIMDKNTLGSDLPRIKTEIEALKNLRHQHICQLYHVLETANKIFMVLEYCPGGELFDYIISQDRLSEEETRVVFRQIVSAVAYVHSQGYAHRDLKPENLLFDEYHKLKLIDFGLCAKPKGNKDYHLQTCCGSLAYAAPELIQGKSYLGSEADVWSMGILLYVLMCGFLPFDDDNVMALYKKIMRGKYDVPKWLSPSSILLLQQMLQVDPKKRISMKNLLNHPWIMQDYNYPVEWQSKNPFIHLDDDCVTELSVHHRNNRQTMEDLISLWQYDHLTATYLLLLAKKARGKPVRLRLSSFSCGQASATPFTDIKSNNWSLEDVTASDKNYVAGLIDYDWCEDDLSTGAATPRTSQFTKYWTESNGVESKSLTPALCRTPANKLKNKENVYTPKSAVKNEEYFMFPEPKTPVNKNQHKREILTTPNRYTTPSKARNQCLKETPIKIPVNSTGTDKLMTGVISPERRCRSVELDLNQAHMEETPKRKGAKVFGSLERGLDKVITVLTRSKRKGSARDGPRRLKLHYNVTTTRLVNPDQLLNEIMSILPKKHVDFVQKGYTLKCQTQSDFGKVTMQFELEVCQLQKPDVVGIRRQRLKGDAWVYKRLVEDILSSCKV
# Sequence of Receptor-interacting serine/threonine-protein kinase 1 (Homo sapiens) (Q13546 whole entry): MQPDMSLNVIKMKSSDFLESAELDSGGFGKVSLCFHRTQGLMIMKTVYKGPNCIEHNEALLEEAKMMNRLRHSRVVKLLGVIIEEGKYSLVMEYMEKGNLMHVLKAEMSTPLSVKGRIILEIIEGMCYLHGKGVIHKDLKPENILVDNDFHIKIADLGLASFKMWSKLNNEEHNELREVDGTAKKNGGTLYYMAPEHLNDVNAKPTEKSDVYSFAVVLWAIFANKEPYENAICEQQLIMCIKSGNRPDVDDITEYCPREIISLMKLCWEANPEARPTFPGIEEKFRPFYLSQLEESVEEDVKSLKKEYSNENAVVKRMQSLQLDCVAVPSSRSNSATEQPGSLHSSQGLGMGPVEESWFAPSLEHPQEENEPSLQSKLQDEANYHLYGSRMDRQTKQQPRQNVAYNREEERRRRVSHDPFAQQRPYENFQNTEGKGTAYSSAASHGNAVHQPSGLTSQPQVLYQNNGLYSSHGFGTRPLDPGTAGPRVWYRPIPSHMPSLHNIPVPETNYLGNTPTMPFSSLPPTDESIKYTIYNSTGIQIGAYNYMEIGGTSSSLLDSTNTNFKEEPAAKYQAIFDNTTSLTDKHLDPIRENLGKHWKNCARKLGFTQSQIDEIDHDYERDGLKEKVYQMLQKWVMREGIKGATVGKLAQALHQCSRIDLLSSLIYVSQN
# Sequence of cGMP-dependent protein kinase 2 (Homo sapiens) (Q13237 whole entry): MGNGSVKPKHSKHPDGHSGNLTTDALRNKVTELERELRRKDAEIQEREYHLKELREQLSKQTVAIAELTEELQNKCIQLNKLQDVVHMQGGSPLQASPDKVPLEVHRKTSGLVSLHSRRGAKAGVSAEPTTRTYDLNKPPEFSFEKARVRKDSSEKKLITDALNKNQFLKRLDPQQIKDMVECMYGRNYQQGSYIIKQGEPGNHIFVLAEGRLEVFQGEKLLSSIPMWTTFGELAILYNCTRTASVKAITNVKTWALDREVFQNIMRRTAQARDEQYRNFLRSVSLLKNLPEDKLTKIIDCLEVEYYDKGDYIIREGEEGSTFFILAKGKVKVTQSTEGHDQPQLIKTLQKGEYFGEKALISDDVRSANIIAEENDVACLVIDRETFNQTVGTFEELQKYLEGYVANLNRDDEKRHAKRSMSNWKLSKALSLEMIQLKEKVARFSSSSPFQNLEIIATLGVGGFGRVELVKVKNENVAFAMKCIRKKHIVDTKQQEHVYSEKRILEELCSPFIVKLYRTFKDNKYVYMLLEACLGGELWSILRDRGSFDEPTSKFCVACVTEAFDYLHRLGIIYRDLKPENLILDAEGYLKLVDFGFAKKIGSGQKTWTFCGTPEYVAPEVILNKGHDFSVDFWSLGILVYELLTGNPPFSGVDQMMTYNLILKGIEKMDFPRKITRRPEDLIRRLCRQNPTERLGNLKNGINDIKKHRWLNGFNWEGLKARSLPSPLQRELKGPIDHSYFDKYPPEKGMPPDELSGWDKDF
# Sequence of Mitogen-activated protein kinase kinase kinase kinase 1 (Homo sapiens) (Q92918 whole entry, looked up): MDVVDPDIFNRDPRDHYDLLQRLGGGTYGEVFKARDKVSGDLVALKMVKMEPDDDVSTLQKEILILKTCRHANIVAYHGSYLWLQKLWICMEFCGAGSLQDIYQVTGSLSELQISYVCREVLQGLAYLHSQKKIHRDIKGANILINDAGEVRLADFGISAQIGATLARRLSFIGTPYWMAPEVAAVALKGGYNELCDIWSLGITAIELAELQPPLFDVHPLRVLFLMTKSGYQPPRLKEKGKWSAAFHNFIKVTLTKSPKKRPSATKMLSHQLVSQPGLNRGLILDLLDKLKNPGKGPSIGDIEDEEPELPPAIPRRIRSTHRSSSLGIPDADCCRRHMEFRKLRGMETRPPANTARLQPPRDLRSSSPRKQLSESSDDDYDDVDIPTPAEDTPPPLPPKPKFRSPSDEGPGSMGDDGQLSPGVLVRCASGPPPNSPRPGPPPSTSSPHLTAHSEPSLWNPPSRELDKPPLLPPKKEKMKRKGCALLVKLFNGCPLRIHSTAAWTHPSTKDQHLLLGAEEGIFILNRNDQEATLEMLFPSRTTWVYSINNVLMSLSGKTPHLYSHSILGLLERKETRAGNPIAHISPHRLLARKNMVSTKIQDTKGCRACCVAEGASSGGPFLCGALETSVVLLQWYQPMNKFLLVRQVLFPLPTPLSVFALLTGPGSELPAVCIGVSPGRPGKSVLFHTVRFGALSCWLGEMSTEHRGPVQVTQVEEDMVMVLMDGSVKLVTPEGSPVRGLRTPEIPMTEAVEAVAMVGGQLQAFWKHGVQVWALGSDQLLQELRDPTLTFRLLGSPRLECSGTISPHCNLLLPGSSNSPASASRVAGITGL
# Sequence of Tyrosine-protein kinase Srms (Homo sapiens) (Q9H3Y6 whole entry): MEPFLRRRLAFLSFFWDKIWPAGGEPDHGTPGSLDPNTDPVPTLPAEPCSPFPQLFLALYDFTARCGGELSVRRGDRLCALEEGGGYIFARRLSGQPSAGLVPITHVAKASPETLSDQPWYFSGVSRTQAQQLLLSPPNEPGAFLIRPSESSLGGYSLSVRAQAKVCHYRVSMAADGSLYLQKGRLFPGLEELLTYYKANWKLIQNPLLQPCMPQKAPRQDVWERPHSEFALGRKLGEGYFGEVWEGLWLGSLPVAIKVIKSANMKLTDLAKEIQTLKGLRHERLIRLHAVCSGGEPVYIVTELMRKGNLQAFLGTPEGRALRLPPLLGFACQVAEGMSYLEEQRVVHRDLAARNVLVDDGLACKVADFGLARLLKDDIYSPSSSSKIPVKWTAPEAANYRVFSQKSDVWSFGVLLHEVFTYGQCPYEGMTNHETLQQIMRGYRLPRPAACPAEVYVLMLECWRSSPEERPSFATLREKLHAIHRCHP
# Sequence of Myosin light chain kinase family member 4 (Homo sapiens) (Q86YV6 whole entry): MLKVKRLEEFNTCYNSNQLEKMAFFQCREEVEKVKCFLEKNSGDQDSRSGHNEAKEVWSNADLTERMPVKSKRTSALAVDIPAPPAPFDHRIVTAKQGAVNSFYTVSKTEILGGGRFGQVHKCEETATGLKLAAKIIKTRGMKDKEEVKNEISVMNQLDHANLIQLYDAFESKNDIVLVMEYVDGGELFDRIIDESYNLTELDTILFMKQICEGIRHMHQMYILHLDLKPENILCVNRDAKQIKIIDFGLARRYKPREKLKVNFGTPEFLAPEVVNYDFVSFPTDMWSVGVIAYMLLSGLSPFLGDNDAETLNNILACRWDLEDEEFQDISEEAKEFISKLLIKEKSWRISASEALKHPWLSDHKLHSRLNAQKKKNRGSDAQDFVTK
smiles,measurement,setting,value
Cn1nc(C(=O)NCc2ccc(C(=O)O)cc2)cc1-c1ccc2[nH]ccc2c1 [BI 4395],residual activity,[1],92%
same,residual activity,[2],79%
same,residual activity,[3],100%
same,residual activity,[4],75%
same,residual activity,[5],93%
same,residual activity,[6],59%
same,residual activity,[7],90%
same,residual activity,[8],97%
same,residual activity,[9],91%
same,residual activity,[10],95%
same,residual activity,[11],76%
same,residual activity,[12],85%
same,residual activity,[13],100%
same,residual activity,[14],86%
same,residual activity,[15],87%
same,residual activity,[16],93%
same,residual activity,[17],85%
same,residual activity,[18],100%
same,residual activity,[19],97%
same,residual activity,[20],81%
same,residual activity,[21],72%
same,residual activity,[22],98%
same,residual activity,[23],86%
same,residual activity,[24],80%
same,residual activity,[25],73%
same,residual activity,[26],76%
same,residual activity,[27],58%
same,residual activity,[28],93%
same,residual activity,[29],84%
same,residual activity,[30],94%
same,residual activity,[31],100%
same,residual activity,[32],55%
same,inhibition,[33],73.9%
same,residual activity,[34],91%
same,residual activity,[35],100%
same,residual activity,[36],86%
same,residual activity,[37],76%
same,residual activity,[38],96%
same,residual activity,[39],100%
same,residual activity,[40],93%
same,inhibition,[41],1.99%
same,residual activity,[42],81%
same,residual activity,[43],78%
same,residual activity,[44],92%
CCOC(=O)c1cc2cc(-c3cc(C(=O)NCc4ccc(C(=O)O)cc4)nn3C)ccc2[nH]1 [BI 4394],residual activity,[1],94%
same,residual activity,[2],76%
same,residual activity,[3],100%
same,residual activity,[4],76%
same,residual activity,[5],100%
same,residual activity,[6],100%
same,residual activity,[7],85%
same,residual activity,[8],100%
same,residual activity,[9],96%
same,residual activity,[10],64%
same,residual activity,[11],96%
same,residual activity,[12],84%
same,residual activity,[13],99%
same,residual activity,[14],100%
same,residual activity,[15],61%
same,residual activity,[16],97%
same,residual activity,[17],83%
same,residual activity,[18],100%
same,residual activity,[19],97%
same,residual activity,[20],90%
same,residual activity,[21],95%
same,residual activity,[22],90%
same,residual activity,[23],95%
same,residual activity,[24],100%
same,residual activity,[25],83%
same,residual activity,[26],95%
same,residual activity,[27],90%
same,residual activity,[28],100%
same,residual activity,[29],85%
same,residual activity,[30],100%
same,residual activity,[31],100%
same,residual activity,[32],72%
same,inhibition,[33],59.6%
same,residual activity,[34],98%
same,residual activity,[35],98%
same,residual activity,[36],100%
same,residual activity,[37],100%
same,residual activity,[38],69%
same,residual activity,[39],87%
same,residual activity,[40],76%
same,inhibition,[41],14.6%
same,residual activity,[42],100%
same,residual activity,[43],93%
same,residual activity,[44],100%
